Assay results published in patent EP0260606A2, “Medicament for curing neurotic disturbance or disorder comprising sialocylglycerolipid” (MECT CORPORATION, priority 1986, dated 1988).
Values joined by “and” are separate entries in the source; they are usually repeats but may differ in a detail not shown here. Identical values can stand only once. “Also recorded” adds a separate entry of the source. Like-named read-outs stand apart in the source and are kept apart here. Marks after values point to notes of the source that are not given here.

Columns and labels:
[1] = test system: neuroblastoma cell Neuro2a; assay: Effect on the neuroblastoma cell Neuro2a (formation and growth of axis-cylinder process); assay type: cell-based; settings: for Length of Axis-cylinder Process / Number of Axis-cylinder Process: average ± S.E.
Protocol: The nervous cell used in the test was neuroblastoma cell Neuro2a which is readily available and can be cultured in a relatively simple manner.
Neuro2a was floated on a culture medium containing fetal cattle serum (hereinafter referred to as FCS), the culture medium consisting of 90% of Dubecco's Modified Eagle's Medium (hereinafter referred to as MEM) and l0% of FCS and added with l00 U/ml of penicillin G and l00 µg/ml of streptomycin sulfate, and cultured in a carbon dioxide cultivator at 37°C in an air containing 5% of carbon dioxide. The containers used were 60 mm polystyrene dishes, and each of the containers was incubated with l to 2 × l0⁴ cells followed by culturing for 48 hours prior to the test. […] After the lapse of 24 hours and 48 hours, the increase in cells formed with axis-cylinder process, the increase in number of axis-cylinder processes and the elongation of the length of the axis-cylinder process were measured.
The test was conducted while using three dishes for each concentration of each test material.

[2] = test system: Mice Having Their Nerves Damaged by Mercurialism; assay: T-shaped labyrinth learning and memory in mice damaged by methylmercuric chloride; assay type: in vivo; settings: for number of mice that reached the standard / number of mice subjected to test: 40 mg/kg,i.p./day for 10 days after MMC 6 mg/kg/day; for average time required for running into the safety area: 40 mg/kg,i.p./day after MMC, average ± S.D.
Protocol: Male Balb/c mice of 7-weeks age were pre-trained in a T-shaped labylinth 3 times a week so that they learned to go straight from the starting area to the safety area. Then, a group of mice was orally administered methylmercuric chloride (hereinafter referred to as MMC) at a dose of 6 mg/kg/day for 7 days after the mice had reached 8-weeks age. A control group of mice was administered 0.l ml/l0 g/day of saline. The day after the completion of administration of MMC, the compound (I) of the invention was intraperitoneally administered at a dose of 40 mg/kg/day for l0 days. From the 23rd day, the training in the T-shape labylinth was restarted, and the running actions of the mice were observed. At the 7th day (29th day from the beginning of the experiment) and 8th day (30th day from the beginning of the experiment) from the re-starting of the training, the number of mice of each group, that could be subjected to test, was counted; and the number of mice that reached the standard (running into the safety area within 5 seconds) for 8 or more times per ten times trials was counted. In the following Table 6, the number of mice subjected to test is shown as the denominator, and the number of mice that reached the standard is shown as the numerator. Meanwhile, the decrease in number of mice was caused by death due to poisoning from MMC. Also shown in Table 6 are the average times (second) ± S.D. […] required for running into the safety area.

[3] = Acute toxicity test; assay type: in vivo; settings: mouse, in vivo, mortality at the 7th day, Probit method, read-out: LD₅₀
Protocol: (§1) The compound (I) was administered through two administration routes, i.e. orally and intravenous injection, to the groups each consisting of five male ddy mice, while increasing the dosage amounts little by little.
(§2) From the time immediately after the administration to the lapse of 7 days, the general syndrome and death of the mice were inspected. The medial lethal dose (LD₅₀) was calculated, through the Probit method, from the mortality rate at the 7th day from the beginning of administration. LD₅₀ = 58l mg/kg (through intraveous injection) 5000 mg/kg (through oral administration)

[4] = test system: male ddy mice; assay: Acute toxicity test; assay type: in vivo; settings: result in words
Protocol: as §1, §2

[5] = test system: rat having its nigral depaminergic neuron destroyed; assay: Methamphethamine-induced rotational movement after 6-hydroxydopamine lesion and fetal dopaminergic cell transplantation; assay type: in vivo; settings: for Average of Rotational Movement of Rats (Average + S.D.): group average; for Average of Rotational Movement of Rats (Average + S.D.) / Number of Rotational Movement of Rats: 30 mg/kg; for Number of Rotational Movement of Rats: individual rat, 30 mg/kg every day for two weeks from transplantation; for remedy of motor disturbance: result in words
From the text: The nigral dopaminergic neuron of the brain of a rat was chemically destroyed by injecting a very small quantity of 6-hydroxydopamine to cause motor disturbance.
After the lapse of two weeks, a fetal brain dopaminergic cell was transplanted on the Nucleus caudatus of the rat brain to try to remedy the motor disturbance.
The nigral depaminergic neuron at the left side of the brain of a female Wister family rat aged 4-weeks (Body Weight: l00 g) was destroyed by injecting a very small quantity of 6-hydroxydopamine.
After two weeks from the destruction by the administration of the drug, portions of the […] containing dopamin cells (i.e. substantia nigra and the Tegmentum at the abdomen side) were extracted from the fetal rat brain of a fetal rat of l4 to l7 days age, cut finely, and treated with trypsin. Then, the extracted tissues were incubated at 37°C for 30 minutes, and the tissues were subjected to pipetting to form a suspension. 5 µl each of the suspensions were transplanted on two sites of the Nucleus caudatus of the destructed side, the total of l0 µl (containing about l0⁵ cells) being transplanted.
The rotational movements caused by administration of methamphethamine were examined at the time point before 2 weeks of the transplantation (- 2W), at the time point before one week of the transplantation (- lW) and at the time point after two weeks of the transplantation (2W). The number of rotational movements within one minute were counted at l0 minute intervals after six administrations of methamphethamine, and the total number of rotational movements counted for the six times was averaged to find the mean rotational movement. As controls, the numbers of rotational movements of the rats administered, respectively, with a ganglioside mixture and GM₁ ganglioside were counted.

[6] = in consideration of the molecular weights, 48 hour cultivation
[7] = - 1W (before transplantation and dosing)
[8] = - 2W (before transplantation and dosing)

CCCCCCCCCCCCCCOCC(COC1(C(=O)O)CC(O)C(NC(C)=O)C(C(O)C(O)CO)O1)OCCCCCCCCCCCCCC (stereo not shown) [Compound (I)]
Number of Cells Formed with Axis-cylinder Process ([1]; 24 hours, 0.01 µg/ml): 184 | Ratio of Cells Formed with Axis-cylinder Process ([1]; 24 hours, 0.01 µg/ml): 44.7% | Total Number of Cells ([1]; 24 hours, 0.01 µg/ml): 412 | Length of Axis-cylinder Process ([1]; 24 hours, 0.01 µg/ml): 107.5 ± 4.56 µm/cell | Number of Axis-cylinder Process ([1]; 24 hours, 0.01 µg/ml): 1.2 ± 0.03 per cell | Number of Cells Formed with Axis-cylinder Process ([1]; 24 hours, 0.1 µg/ml): 188 | Ratio of Cells Formed with Axis-cylinder Process ([1]; 24 hours, 0.1 µg/ml): 50.9% | Total Number of Cells ([1]; 24 hours, 0.1 µg/ml): 369 | Length of Axis-cylinder Process ([1]; 24 hours, 0.1 µg/ml): 111.4 ± 4.60 µm/cell | Number of Axis-cylinder Process ([1]; 24 hours, 0.1 µg/ml): 1.2 ± 0.03 per cell | Number of Cells Formed with Axis-cylinder Process ([1]; 24 hours, 1 µg/ml): 214 | Ratio of Cells Formed with Axis-cylinder Process ([1]; 24 hours, 1 µg/ml): 63.5% | Total Number of Cells ([1]; 24 hours, 1 µg/ml): 337 | Length of Axis-cylinder Process ([1]; 24 hours, 1 µg/ml): 158.7 ± 6.94 µm/cell | Number of Axis-cylinder Process ([1]; 24 hours, 1 µg/ml): 1.0 ± 0.02 per cell | Number of Cells Formed with Axis-cylinder Process ([1]; 24 hours, 10 µg/ml): U.C. | Total Number of Cells ([1]; 24 hours, 10 µg/ml): U.C. | Length of Axis-cylinder Process ([1]; 24 hours, 10 µg/ml): U.C. | Number of Axis-cylinder Process ([1]; 24 hours, 10 µg/ml): U.C. | Number of Cells Formed with Axis-cylinder Process ([1]; 48 hours, 0.01 µg/ml): 249 | Ratio of Cells Formed with Axis-cylinder Process ([1]; 48 hours, 0.01 µg/ml): 50.7% | Total Number of Cells ([1]; 48 hours, 0.01 µg/ml): 491 | Length of Axis-cylinder Process ([1]; 48 hours, 0.01 µg/ml): 117.1 ± 4.94 µm/cell | Number of Axis-cylinder Process ([1]; 48 hours, 0.01 µg/ml): 1.2 ± 0.03 per cell | Number of Cells Formed with Axis-cylinder Process ([1]; 48 hours, 0.1 µg/ml): 258 | Ratio of Cells Formed with Axis-cylinder Process ([1]; 48 hours, 0.1 µg/ml): 55.6% | Total Number of Cells ([1]; 48 hours, 0.1 µg/ml): 464 | Length of Axis-cylinder Process ([1]; 48 hours, 0.1 µg/ml): 128.8 ± 5.71 µm/cell | Number of Axis-cylinder Process ([1]; 48 hours, 0.1 µg/ml): 1.2 ± 0.03 per cell | Number of Cells Formed with Axis-cylinder Process ([1]; 48 hours, 1 µg/ml): 248 | Ratio of Cells Formed with Axis-cylinder Process ([1]; 48 hours, 1 µg/ml): 61.4% | Total Number of Cells ([1]; 48 hours, 1 µg/ml): 404 | Length of Axis-cylinder Process ([1]; 48 hours, 1 µg/ml): 154.7 ± 5.99 µm/cell | Number of Axis-cylinder Process ([1]; 48 hours, 1 µg/ml): 1.1 ± 0.03 per cell | Number of Cells Formed with Axis-cylinder Process ([1]; 48 hours, 10 µg/ml): U.C. | Total Number of Cells ([1]; 48 hours, 10 µg/ml): U.C. | Length of Axis-cylinder Process ([1]; 48 hours, 10 µg/ml): U.C. | Number of Axis-cylinder Process ([1]; 48 hours, 10 µg/ml): 1 U.C. | minimal effective concentration ([1]; Mus musculus, N2a, 48 hour cultivation): 0.01 µg/mL | activity relative to GM₁ [1, 6]: 500 times | activity relative to GQ1b [1, 6]: 300 times | effect on growth of the axis-cylinder process ([1]; result in words, compared with the control group): significant effect of promoting the growth of the axis-cylinder process; also recorded: extremely high activity for promoting growth or elongation of axis-cylinder process | number of mice that reached the standard / number of mice subjected to test ([2]; 7th Day of re-started training, standard: safety area within 5 seconds in 8 or more of ten trials): 4/6 | average time required for running into the safety area ([2]; 7th Day): 2.5 ± 0.8 s | number of mice that reached the standard / number of mice subjected to test ([2]; 8th Day of re-started training): 5/6 | average time required for running into the safety area ([2]; 8th Day): 3.1 ± 0.7 s | remedy and restoration of learning and memory ability ([2]; result in words): had the effect of remedying and restoring the learning and memory ability | LD50 at 168 h ([3]; intravenous injection): 581 mg/kg | LD50 at 168 h ([3]; oral administration): 5000 mg/kg | toxicity [4]: extremely low toxicity | Average of Rotational Movement of Rats (Average + S.D.) ([5]; 2W after transplantation): 2.8+4.0* | Average of Rotational Movement of Rats (Average + S.D.) [5, 7]: 12.3+3.8 | Average of Rotational Movement of Rats (Average + S.D.) [5, 8]: 8.2+3.2 | Number of Rotational Movement of Rats ([5]; 2W after transplantation): 5.3 and 3.2 and 5.8 | Number of Rotational Movement of Rats [5, 7]: 17.4 and 12.2 and 8.4 and 11.0 | Number of Rotational Movement of Rats [5, 8]: 12.2 and 5.8 and 5.4 and 9.5 | remedy of motor disturbance [5]: effect of promoting the remedy of motor disturbance similar to the ganglioside mixtures | remedy of motor disturbance ([5]; listed as compound (I)): had a function of remedying the nerves similar to gangliosides
